Reference: patent US20230210999A1, “TARGETED PROTEASE DEGRADATION (TED) PLATFORM” (EUBULUS BIOTHERAPEUTICS INC., priority 2020, published 2023)

Key:
Assay type in all cases: cell-based, human
[1] = test system: MDA-MB-231 cells; experiment: Cell proliferation experiment, MDA-MB-231; details: Homo sapiens, MDA-MB-231, MDA-MB-231 cells; read-out: Inhibitory activity IC50 on MDA-MB-231
Summary of the method: (§1)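 Alamar blue fluorescence after 72 h of compound exposure; IC50 from 4-parameter fit (Min, Max, Slope). Cells passaged ≥2 times, log-phase, 96-well, duplicate wells, 5-fold serial dilutions.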

[2] = test system: PC-3; experiment: Cell proliferation experiment, PC-3; details: Homo sapiens, PC-3, PC-3 cells; read-out: Inhibitory activity IC50 on PC-3
Summary of the method: as §1

[3] = test system: NCIH82 cells; experiment: Cell proliferation experiment, NCI-H82; details: Homo sapiens, NCI-H82, NCI-H82 cells; read-out: Inhibitory activity IC50 on NCI-H82
Summary of the method: as §1

[4] = test system: Daudi cells; experiment: Cell proliferation experiment, Daudi; details: Homo sapiens, Daudi, Daudi cells; read-out: Inhibitory activity IC50 on Daudi
Summary of the method: as §1

[5] = test system: MV4;11 cells; experiment: Cell proliferation experiment (Alamar blue, 72 h), MV4;11; details: Homo sapiens, MV4-11, MV4;11 cells; read-out: Inhibitory activity IC50 on MV4;11
Summary of the method: as §1

Structure (SMILES)	IC50 [1]	IC50 [2]	IC50 [3]	IC50 [4]	IC50 [5]
CNC(=O)c1ccccc1Nc1nc(Nc2ccc(C3CCN(C(=O)N[C@H]4CC[C@@H](NCCC#Cc5ccc6c(c5)CN(C5CCC(=O)NC5=O)C6=O)CC4)CC3)cc2)ncc1Cl (stereo partly drawn) [UB-181168]	100 to 1000 nM	100 to 1000 nM	100 to 1000 nM	10 to 100 nM	< 10 nM
CNC(=O)c1ccccc1Nc1nc(Nc2ccc(N3CCN(C(=O)NCCNCCC(=O)Nc4ccc5c(c4)CN(C4CCC(=O)NC4=O)C5=O)CC3)cc2)ncc1Cl (stereo not drawn) [UB-181054]	> 1000 nM	> 1000 nM	100 to 1000 nM	10 to 100 nM	< 10 nM
CNC(=O)c1ccccc1Nc1nc(Nc2ccc(N3CCN(C(=O)N[C@H]4CC[C@@H](NCCCCOCC(=O)Nc5cccc6c5CN(C5CCC(=O)NC5=O)C6=O)CC4)CC3)cc2)ncc1Cl (stereo partly drawn) [UB-181102]	> 1000 nM	> 1000 nM	100 to 1000 nM	100 to 1000 nM	10 to 100 nM
NC(=O)c1ccccc1Nc1nc(Nc2ccc(C3CCN(C(=O)N[C@H]4CC[C@@H](N[C@H]5C[C@H](C#Cc6ccc7c(c6)CN(C6CCC(=O)NC6=O)C7=O)C5)CC4)CC3)cc2)ncc1Cl (stereo partly drawn) [UB-181198]	10 to 100 nM	10 to 100 nM	10 to 100 nM	10 to 100 nM	< 10 nM
CCNC(=O)C#Cc1ccc2c(c1)NC(=O)/C2=C(\Nc1ccc(CNCCOCCOCCOCCOCCC(=O)Nc2ccc3c(c2)CN(C2CCC(=O)NC2=O)C3=O)cc1)c1ccccc1 (stereo not drawn) [UB-180957]	> 1000 nM	> 1000 nM	100 to 1000 nM	100 to 1000 nM	10 to 100 nM
CNC(=O)c1ccccc1Nc1nc(Nc2ccc(N3CCN(C(=O)N[C@H]4CC[C@@H](NCCCC#Cc5cccc6c5CN(C5CCC(=O)NC5=O)C6=O)CC4)CC3)cc2)ncc1Cl (stereo partly drawn) [UB-181100]	100 to 1000 nM	10 to 100 nM	10 to 100 nM	10 to 100 nM	< 10 nM
CNC(=O)c1ccccc1Nc1nc(Nc2ccc(N3CCN(C(=O)N[C@H]4CC[C@@H](NCCOCCC#Cc5cccc6c5CN(C5CCC(=O)NC5=O)C6=O)CC4)CC3)nc2)ncc1Cl (stereo partly drawn) [UB-181141]	100 to 1000 nM	100 to 1000 nM	100 to 1000 nM	100 to 1000 nM	< 10 nM
CNC(=O)c1ccccc1Nc1nc(Nc2ccc(N3CCN(C(=O)N[C@H]4CC[C@@H](N[C@H]5C[C@H](C#Cc6ccc7c(c6)CN(C6CCC(=O)NC6=O)C7=O)C5)CC4)CC3)cc2)ncc1Cl (stereo partly drawn) [UB-181181]	> 1000 nM	10 to 100 nM	100 to 1000 nM	> 1000 nM	10 to 100 nM
CNC(=O)c1ccccc1Nc1nc(Nc2ccc(C3CCN(C(=O)N[C@H]4CC[C@H](NCCC#Cc5cccc6c5CN(C5CCC(=O)NC5=O)C6=O)CC4)CC3)cc2)ncc1Cl (stereo partly drawn) [UB-181138]	100 to 1000 nM	10 to 100 nM	10 to 100 nM	100 to 1000 nM	< 10 nM
CNC(=O)c1ccccc1Nc1nc(Nc2ccc(N3CCN(C(=O)N[C@H]4CC[C@@H](NCCC#Cc5ccc6c(c5)CN(C5CCC(=O)NC5=O)C6=O)CC4)CC3)cc2)ncc1Cl (stereo partly drawn) [UB-181103]	100 to 1000 nM	10 to 100 nM	10 to 100 nM	10 to 100 nM	< 10 nM
CNC(=O)c1ccccc1Nc1nc(Nc2ccc(N3CCN(C(=O)N[C@H]4CC[C@@H](NCCC#Cc5cccc6c5CN(C5CCC(=O)NC5=O)C6=O)CC4)CC3)nc2)ncc1Cl (stereo partly drawn) [UB-181173]	> 1000 nM	10 to 100 nM	> 1000 nM	> 1000 nM	10 to 100 nM
CNC(=O)c1ccccc1Nc1nc(Nc2ccc(N3CCN(C(=O)N[C@H]4CC[C@@H](NCCC#Cc5cccc6c5CN(C5CCC(=O)NC5=O)C6=O)CC4)CC3)cc2)ncc1Cl (stereo partly drawn) [UB-181104]	100 to 1000 nM	10 to 100 nM	10 to 100 nM	10 to 100 nM	< 10 nM
